Assay results reported in patent US8575144B2, “Beta-lactamase inhibitory compounds” (Southern Methodist University, priority 2008, dated 2013).

How the values were obtained:
Resistant A. baumannii = test: Synergy of inhibitors with imipenem against resistant A. baumannii; assay type: cell-based
Excerpt: (§1) Tables 2 and 3 show the effectiveness of inhibitory compounds of the invention in killing resistant bacterial strains with imipenem, a β-lactam antibiotic.

Resistant P. aeruginosa = test: Synergy of inhibitors with imipenem against resistant P. aeruginosa; assay type: cell-based
Excerpt: as §1

AmpC β-lactamase [1] = target: T1, AmpC β-lactamase (Pseudomonas aeruginosa, UniProt P24735); test: Inhibition of representative β-lactamases: AmpC P. aeruginosa in serum; assay type: biochemical
AmpC β-lactamase [2] = target: T1, AmpC β-lactamase; test: Inhibition of representative β-lactamases: AmpC P. aeruginosa; assay type: biochemical
AmpC β-lactamase [3] = conditions: read-out: IC50 AmpC A. baumannii
Excerpt: Methods for testing the β-lactamase inhibitory bioactivity of compounds are well known in the art. For example, see T. Viswanantha, et al. (2008), “Assays for β-lactamase Activity and Inhibition,”, Methods in Molecular Medicine, 142: New Antibiotic Targets, Chapter 19, pp. 239-260, and references cited therein.

OXA-40 β-lactamase = OXA-40 β-lactamase (Acinetobacter baumannii, UniProt Q8RLA6); assay type: biochemical
TEM-1 β-lactamase = TEM-1 β-lactamase (Escherichia coli, UniProt P62593); test: Inhibition of representative β-lactamases: TEM-1; assay type: biochemical; conditions: read-out: IC50 TEM-1 E. Coli
TEM-1 β-lactamase, sequence (P62593 24-286 limits assumed): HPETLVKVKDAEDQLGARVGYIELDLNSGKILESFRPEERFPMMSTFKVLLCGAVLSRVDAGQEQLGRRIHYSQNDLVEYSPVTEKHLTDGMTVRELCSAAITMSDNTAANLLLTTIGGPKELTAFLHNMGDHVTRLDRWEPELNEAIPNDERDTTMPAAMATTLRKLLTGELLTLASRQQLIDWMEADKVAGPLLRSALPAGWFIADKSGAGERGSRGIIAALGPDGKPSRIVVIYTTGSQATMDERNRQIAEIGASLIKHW

T1 sequence (P24735 27-397): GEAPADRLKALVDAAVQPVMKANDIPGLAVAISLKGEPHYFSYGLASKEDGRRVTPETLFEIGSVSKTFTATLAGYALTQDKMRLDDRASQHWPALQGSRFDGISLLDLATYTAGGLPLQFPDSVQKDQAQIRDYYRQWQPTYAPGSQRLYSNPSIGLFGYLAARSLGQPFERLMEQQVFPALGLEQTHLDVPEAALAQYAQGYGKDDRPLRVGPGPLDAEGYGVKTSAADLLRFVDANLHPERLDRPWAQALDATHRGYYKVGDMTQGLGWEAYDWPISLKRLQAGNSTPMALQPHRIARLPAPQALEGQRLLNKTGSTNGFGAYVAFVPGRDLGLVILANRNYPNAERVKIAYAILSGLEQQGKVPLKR
OXA-40 β-lactamase, sequence (Q8RLA6 22-275): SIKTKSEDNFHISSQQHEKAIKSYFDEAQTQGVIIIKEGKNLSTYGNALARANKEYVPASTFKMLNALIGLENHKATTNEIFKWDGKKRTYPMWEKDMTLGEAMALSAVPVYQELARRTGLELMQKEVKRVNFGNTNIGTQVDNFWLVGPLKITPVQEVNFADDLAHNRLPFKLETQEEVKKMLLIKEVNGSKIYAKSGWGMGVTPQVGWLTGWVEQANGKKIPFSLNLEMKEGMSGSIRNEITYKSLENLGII

| MIC (Resistant A. baumannii; Acinetobacter baumannii, imipenem alone, no inhibitor) [µg/mL] | MIC (Resistant P. aeruginosa; Pseudomonas aeruginosa, imipenem alone, no inhibitor) [µg/mL] | SMILES | Inhibitor concentration with imipenem at 0.0313 MIC (Resistant A. baumannii; imipenem 8 mg/L (0.0313 MIC)) [µg/mL] | Inhibitor concentration with imipenem at 0.0625 MIC (Resistant A. baumannii; imipenem 16 mg/L (0.0625 MIC)) [µg/mL] | Inhibitor concentration with imipenem at 0.125 MIC (Resistant A. baumannii; imipenem 32 mg/L (0.125 MIC)) [µg/mL] | Inhibitor concentration with imipenem at 0.25 MIC (Resistant A. baumannii; imipenem 64 mg/L (0.25 MIC)) [µg/mL] | Inhibitor concentration with imipenem at 0.5 MIC (Resistant A. baumannii; imipenem 128 mg/L (0.5 MIC)) [µg/mL] | IC50 (AmpC β-lactamase [1]) [nM] | IC50 (AmpC β-lactamase [2]) [nM] | Inhibitor concentration with imipenem at 0.0313 MIC (Resistant P. aeruginosa; imipenem 0.625 mg/L (0.0313 MIC)) [µg/mL] | Inhibitor concentration with imipenem at 0.0625 MIC (Resistant P. aeruginosa; imipenem 1.25 mg/L (0.0625 MIC)) [µg/mL] | Inhibitor concentration with imipenem at 0.125 MIC (Resistant P. aeruginosa; imipenem 2.5 mg/L (0.125 MIC)) [µg/mL] | Inhibitor concentration with imipenem at 0.25 MIC (Resistant P. aeruginosa; imipenem 5 mg/L (0.25 MIC)) [µg/mL] | Inhibitor concentration with imipenem at 0.5 MIC (Resistant P. aeruginosa; imipenem 10 mg/L (0.5 MIC)) [µg/mL] | IC50 (AmpC β-lactamase [3]) [nM] | IC50 (OXA-40 β-lactamase) [nM] | IC50 (TEM-1 β-lactamase) [nM] |
| --- | --- | --- | --- | --- | --- | --- | --- | --- | --- | --- | --- | --- | --- | --- | --- | --- | --- |
| 256 | 20 | C[C@@H](O)[C@H]1C(=O)N2C(C(=O)O)=C(SCCN=CN)C[C@H]12 [Imipenem, imipenem, reference compound] | – | – | – | – | – | – | – | – | – | – | – | – | – | – | – |
| – | – | C[C@]1(COC(=O)Cc2ccc(O)c(O)c2)[C@H](C(=O)O)N2C(=O)/C(=C/c3ccccn3)[C@H]2S1(=O)=O [JDB/LN-1-255] | >100 | 100 | 50 | 25 | 6.25 | 82 | 6 | >100 | 100 | 50 | 25 | 6.25 | 4 | 11 | 0.03 |
